Measurements published in patent publication US20240216316A1, “DIHOMO-GAMMA LINOLENIC ACID (DGLA) IS A NOVEL SENOLYTIC” (Buck Institute for Research on Aging, priority 2020, published 2024).
“Also recorded” adds a separate entry of the source.

Columns and labels:
[1] = test system: IMR-90; assay: Cell counts of senescent vs nonsenescent IMR-90 treated with CP 24,879 plus sub-toxic DGLA; format: cell-based; details: 11.75 μM CP 24,879 in the presence of 10 μM DGLA; 72 hours; SEN(IR) vs NonSEN
Description: IMR-90 were induced to senesce via 10 Gy of ionizing radiation [SEN(IR)] and cultured for 7 days, followed by treatment with 11.75 μM CP 24,879 or vehicle (DMSO) in the presence of a sub-toxic concentration of DGLA (10 μM). Nonsenescent (NonSEN) cells served as a control. After 72 hours, cell numbers were counted and normalized to DMSO treatments.

[2] = biological target: delta-5-desaturase (D5D, gene name: FADS1) (Homo sapiens, UniProt O60427); details: as described in Obukowicz et al. (1998) / Miyahisa et al. (2016); cited from earlier work
delta-5-desaturase (D5D, gene name: FADS1), sequence (O60427 whole entry, species assumed): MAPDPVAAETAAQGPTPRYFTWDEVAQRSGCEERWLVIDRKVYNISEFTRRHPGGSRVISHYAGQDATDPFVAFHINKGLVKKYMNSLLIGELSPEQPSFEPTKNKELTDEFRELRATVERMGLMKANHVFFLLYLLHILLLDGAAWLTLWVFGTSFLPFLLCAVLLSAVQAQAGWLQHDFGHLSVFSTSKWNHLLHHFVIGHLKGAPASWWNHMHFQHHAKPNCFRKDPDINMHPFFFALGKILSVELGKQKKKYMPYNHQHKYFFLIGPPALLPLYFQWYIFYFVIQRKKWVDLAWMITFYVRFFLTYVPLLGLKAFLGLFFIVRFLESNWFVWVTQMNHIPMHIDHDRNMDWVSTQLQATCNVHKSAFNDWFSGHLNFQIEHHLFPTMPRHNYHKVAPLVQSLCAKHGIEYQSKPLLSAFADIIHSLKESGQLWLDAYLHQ

[3] = biological target: T1, delta-6-desaturase (FADS2/D6D) (Homo sapiens, UniProt O95864); details: as described in Obukowicz et al. (1998); cited from earlier work
T1 sequence (O95864 1-444): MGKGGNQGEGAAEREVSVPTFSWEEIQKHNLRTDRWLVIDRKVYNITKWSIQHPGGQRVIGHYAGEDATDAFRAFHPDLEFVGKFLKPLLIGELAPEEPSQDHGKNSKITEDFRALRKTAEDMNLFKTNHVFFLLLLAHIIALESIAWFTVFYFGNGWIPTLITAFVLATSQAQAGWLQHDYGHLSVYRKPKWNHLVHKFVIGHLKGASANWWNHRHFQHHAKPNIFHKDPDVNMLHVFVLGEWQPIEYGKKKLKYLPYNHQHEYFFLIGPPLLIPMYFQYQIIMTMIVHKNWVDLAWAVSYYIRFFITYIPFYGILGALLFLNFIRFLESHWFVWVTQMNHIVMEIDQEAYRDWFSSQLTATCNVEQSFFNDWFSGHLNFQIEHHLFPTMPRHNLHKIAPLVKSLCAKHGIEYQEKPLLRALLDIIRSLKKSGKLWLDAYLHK

[4] = test system: IMR-90; assay: Cell counts and light microscopy of senescent vs nonsenescent IMR-90 treated with T3364366 in 10% or 0.2% FBS; format: cell-based; details: 72 hours; for FBS dependence of cell killing: 10% FBS vs 0.2% FBS, normalized to 0 dose groups
Description: IMR-90 were induced to senesce via 10 Gy of ionizing radiation [SEN(IR)] and cultured for 7 days, followed by treatment with the indicated doses of T3364366 in the presence of 10% FBS (to provide PUFAs). Nonsenescent (NonSEN) cells served as a control. After 72 hours, cell numbers were counted and normalized to DMSO treatments.
Cells from FIG. 10 were visualized by light microscopy, allowing visualization of the cytotoxic properties of T334366 at various doses. (see, e.g., FIG. 11).
IMR-90 were induced to senesce via 10 Gy of ionizing radiation [SEN(IR)] and cultured for 7 days, followed by treatment with the indicated doses of T3364366 in the presence of 10% FBS (which provides PUFAs and growth factors) (FIG. 12, panels A and B—red line, squares) or 0.2% FBS (FIG. 12, panel B—purple line, circles) (which induces quiescence, but limits the ability of cells to synthesize DGLA). Nonsenescent (NonSEN) cells served as a control. After 72 hours, cell numbers were counted and normalized to the 0 dose treatment groups.

[5] = test system: p16-positive cells; assay: Senescence-associated beta-galactosidase staining of epididymal fat and liver of aged P16-3MR mice; format: in vivo; details: P16-3MR mice aged 22 months; gavage 400 mg/kg for 5 consecutive days; tissues five days after final gavage
Description: P16-3MR mice were aged for 22 months, and gavaged with 400 mg/kg of DGLA ethyl ester or vehicle (phosal 50) for 5 consecutive days. Five days after the final gavage, epididymal fat and liver tissues were isolated and stained for senescence-associated beta-galactosidase.

[6] = test system: p16-positive cells; assay: p16 promoter luminescence in aged P16-3MR mice before and after DGLA ethyl ester gavage; format: in vivo; details: P16-3MR mice aged 22 months; gavage 400 mg/kg for 5 consecutive days; measured two days after final gavage
Description: P16-3MR mice were aged for 22 months and luminescence (p16 promoter activity) was measured by luminometry (panel A). Mice were then gavaged with 400 mg/kg of DGLA ethyl ester or vehicle (phosal 50) for 5 consecutive days. Two days after the final gavage, luminescence was again measured (panel B). Six total mice were measured for luminescence and plotted before and after DGLA treatment (panel C).

[7] = test system: IMR-90 fibroblasts; assay: DGLA toxicity to senescent vs mock-irradiated IMR-90 fibroblasts, light microscopy; format: cell-based; details: IMR-90 mock-irradiated or 10Gy IR, 10 days later 50 micromolar DGLA for 2 days
Description: IMR-90 fibroblasts were either mock-irradiated (Mock) or irradiated with 10Gy of ionization radiation (IR) to induce senescence. 10 days later, cells were cultured in the presence of either vehicle (media plus FBS carrier) or 50 micromolar DGLA for 2 days. Cells were then photographed using light microscopy.
To evaluate the effect of DGLA on senescent cells, IMR-90 fibroblasts were either mock-irradiated (Mock) or irradiated with 10Gy of ionization radiation (IR) to induce senescence. Ten days later cells were cultured in the presence of either vehicle (media plus FBS carrier) or 50 micromolar DGLA for 2 days. Cells were then photographed using light microscopy.

[8] = test system: senescent cells [SEN(IR)]; assay: COX-2 dependence of DGLA killing of senescent cells (NS-398 or DMSO), light microscopy and cell counts; format: cell-based; details: SEN(IR) vs non-senescent; NS-398 (COX-2 inhibitor) or DMSO for 10 days, then 25 micromolar DGLA for 2 days
Description: Cells were either irradiated [SEN(IR)] or mock irradiated (non-senescent or “NonS”) and cultured continuously for 10 days in the presence of either NS-398 (a COX-2 inhibitor) or DMSO (vehicle). Cells were then treated with either carrier (BSA) or DGLA (25 micromolar) for 2 days, and images were captured by light microscopy.
(§1) Cells were treated as in FIG. 5. NS≡Non-senescent proliferating, SEN(IR)=IR-induced senescence, treated with 25 micromolar DGLA and either DMSO or NS-398. Panel A) Percent survival was calculated by cell counts relative to cells treated without DGLA. Panel B) Cells were stained for cleaved caspase 3 by immunofluorescence and expressed as stained cells relative to DAPI positive nuclei.
Since DGLA is converted to non-toxic arachidonic acid by D5D in most normal cells (Nakamura & Nara (2004) Annu. Rev. Nutr. 24: 345-376), the combination of gain of COX-2 and loss of D5D in senescent cells makes this an exploitable weakness. […] Its derivatives, the 1-series prostaglandins (PGX1's) are largely anti-inflammatory, and therefore may also have positive effects in the context of sterile inflammation associated with aging, so-called “inflammaging” (Franceschi & Campisi (2014) J. Gerontol. A Biol. Sci. Med. Sci. 69 (Suppl 1): S4-9).

[9] = test system: senescent cells [SEN(IR)]; assay: Cleaved caspase 3 immunofluorescence (apoptosis) after DGLA with NS-398 or DMSO; format: cell-based; details: 25 micromolar DGLA with DMSO or NS-398; stained cells relative to DAPI positive nuclei
Description: as §1

Compound: CC(C)CCOc1ccc(N)cc1.Cl [CP 24,879, 4-(3-methylbutoxy)-benzenamine, monohydrochloride]
- killing of senescent cells (cell numbers normalized to DMSO) [1]: selectively kills senescent cells
- inhibition of delta-5-desaturase [2]: inhibitor of both delta-5- and delta-6-desaturase
- inhibition of delta-6-desaturase [3]: inhibitor of both delta-5- and delta-6-desaturase

Compound: CC(=O)NCCSc1nc2cscc2c(=O)n1-c1ccc(OCC(F)(F)F)cc1 [Compound T3364366, N-[2-[[3,4-Dihydro-4-oxo-3-[4-(2,2,2-trifluoroethoxy)phenyl]thieno[3,4-d]pyrimidin-2-yl]thio]ethyl]acetamide]
- FBS dependence of cell killing [4]: only kills senescent cells in the presence of FBS
- FBS dependence of cell killing ([4]; listed as T334366): FBS-dependent killing of senescent cells
- killing of senescent cells (cell numbers normalized to DMSO) ([4]; indicated doses, 10% FBS, SEN(IR) vs NonSEN): selectively kills senescent cells
- inhibition of delta-5-desaturase [2]: specific inhibitor of delta-5-desaturase

Compound: CCCCC/C=C\C/C=C\C/C=C\CCCCCCC(=O)OCC [DGLA ethyl ester]
- senescence-associated beta-galactosidase in epididymal fat and liver tissues [5]: lowers the burden of p16-positive cells
- burden of p16-positive cells (luminescence, p16 promoter activity) [6]: lowers the burden of p16-positive cells

Compound: CCCCC/C=C\C/C=C\C/C=C\CCCCCCC(=O)O [DGLA, dihomo-gamma-linolenic acid]
- toxicity to senescent cells [7]: selectively toxic to senescent cells
- killing of senescent cells, COX-2 dependence [8]: selectively toxic to senescent cells in a COX-2 dependent manner; also recorded: kills senescent cells in a COX-2-dependent manner
- senescence-associated beta-galactosidase in epididymal fat and liver tissues [5]: less senescence-associated beta-glactodsidase was observed
- apoptosis in senescent cells (cleaved caspase 3), COX-2 dependence [9]: induces apoptosis in senescent cells in a COX-2-dependent manner
